The nature of data set [1]: Serum lipid content before and after taking acer truncatum bunge seed oil in patients with demyelinating disease. The data set is classed as in vivo, human. An excerpt: For sample detection, sample pretreatment and ultra-high performance liquid chromatography-mass spectrometry in Example 1 were used. At the same time, standard SM(d17:1/24:1) and Cer(d18:1/24:1(15Z)) were used as reference for detection.

A short description of data set [2]: Changes of serum lipids containing nervonic acid chains after taking acer truncatum bunge seed oil for different days. The data set is classed as in vivo, SD rats. Conditions: for blood levels after taking acer truncatum bunge seed oil compared with before taking: rat blood; for serum lipid content, Day 1 (NA1) / serum lipid content, Day 3 (NA3) / serum lipid content, Day 7 (NA7) / difference in content between the third and the seventh day of administration / content compared with the normal group: rat serum; for serum lipid content, Day 1 (NA1) / serum lipid content, Day 3 (NA3) / serum lipid content, Day 7 (NA7): acer truncatum bunge seed oil group, nervonic acid 0.03 g/kg/d by gavage; for difference in content between the third and the seventh day of administration: day 3 vs day 7; for content compared with the normal group: oil group vs normal control group; for NA7/NA1: ratio of serum content day 7 to day 1. The procedure: The collected serum samples were thawed on ice, 200 µL plasma was extracted with 600 µL pre-cooled isopropanol, vortexed for 1 min, and incubated at room temperature for 10 min. Then the extraction mixture was stored overnight at -20° C., centrifuged at 4000r for 20 min, and the supernatant was transferred to a new centrifuge tube, diluted with isopropanol/acetonitrile/water (2:1:1, v:v:v) to 1:10. The samples were stored at -80° C. before LC-MS analysis. In addition, 10 µL of each extraction mixture was combined to prepare mixed plasma samples.
The mixed plasma samples were analyzed using ACQUITY UPLC(Waters, USA) connected to the Xevo-G2XS High Resolution Time of Flight (QTOF) Mass spectrometer (Waters) with ESI. CQUITY UPLC BEH C18 column (2.1× 100 mm, 1.7 µm, Waters), and mobile phase consisted of 10 mM ammonium formate-0.1% formic acid-acetonitrile (A, 60: 40, v/v) and 10 mM ammonium formate-0.1% formic acid-isopropanol-acetonitrile (B, 90:10, v/v) were used. Pilot trials with 10-, 15-, and 20-minute washout periods were conducted prior to the large-scale study to assess the potential impact of mobile phase composition and flow rate on lipid retention time. In PIM, rich lipid precursor ions and fragments separated in the same order, with similar peak shapes and ionic strengths. […] The flow rate of mobile phase was 0.4 mL/min. The column was initially eluted with 40% B, 43% B in 2 min according to linear gradient, and 50% B within 0.1 min, 54%B in 3.9 minutes according to linear gradient, and 70% B within 0.1 min. In the last part of the gradient, the amount of B increased to 99% in 1.9 minutes. Finally, solution B was returned to 40% within 0.1 min and the column was balanced for 1.9 min before the next sample injection. The lipids were detected by Xevo-G2XS QTOF mass spectrometer with a sample size of 5 µL/time, collection range of m/z50~1200 […], and collection time of 0.2 s/time. The ion source temperature was 120° C., the desolutizing temperature was 600° C., the gas flow rate was 1000 L/h, and nitrogen was used as the flowing gas. The capillary voltage was 2.0 kV(+)/the […] was 1.5 kV(-), and the cone voltage was 30 V. A standard quality determination was carried out using leucine enkephalin and corrected with sodium formate solution. The samples were sorted randomly. A quality control (QC) sample was injected into every 10 samples and analyzed to investigate repeatability of the data.
50 male SD rats aged 5-6 weeks were randomly divided into 2 groups, which were acer truncatum bunge seed oil group (NA group) and normal control group (CK group). After 1 week of adaptive feeding, rats in each group entered into the experiment. Acer truncatum bunge seed oil group was administrated by gavage according to the content of nervonic acid 0.03 g/kg/d, once a day, and blood was collected after 1, 3 and 7 days. The normal control group was fed routinely, and the blood was collected at the same time as the acer truncatum bunge seed oil group for the detection of lipid SM(d17:1/24:1) and Cer(d18:1/24:1(15Z)) with the nervonic acid chain.

For data set [3] the following is noted: human, once a day for one month; cited from earlier work.
[4] abbreviates: after 1 day of taking the oil, individual patients.

As to `CCCCCCCC/C=C\CCCCCCCCCCCCCC(=O)N[C@@H](CO)[C@H](O)/C=C/CCCCCCCCCCCCC` [Cer(d18:1/24:1(15Z))], in data set [1] (after 7-day of taking the oil), the “serum lipid content relative to before taking acer truncatum bunge seed oil” value came out at 1.45 times. Further, the “serum lipid content relative to before taking acer truncatum bunge seed oil” value in data set [1] (setting [4]) worked out at 1.23 times. Also, in data set [2], the “blood levels after taking acer truncatum bunge seed oil compared with before taking” value was over 1.3 times; the “serum lipid content, Day 1 (NA1)” value is recorded as 135883.1; the “serum lipid content, Day 3 (NA3)” value turned out to be 209352.5; the “serum lipid content, Day 7 (NA7)” value amounted to 172840.3. In data set [2], the “difference in content between the third and the seventh day of administration” value is “no significant difference”; the “content compared with the normal group” value is “increased”; the NA7/NA1 was 1.3.
For the molecule `CCCCCCCC/C=C\CCCCCCCCCCCCCC(=O)O` [nervonic acid, cis-15-Tetracosenic acid], the “test indexes (mind, picture, recognition, association, sence of touch, understanding) compared with the control group” value in data set [3] is “significantly improved”.
For the molecule SM(d17:1/24:1), in data set [1] (after 7-day of taking the oil), the “serum lipid content relative to before taking acer truncatum bunge seed oil” value turned out to be 1.22 times. The “serum lipid content relative to before taking acer truncatum bunge seed oil” value in data set [1] (setting [4]) stood at 1.15 times. Also, in data set [2], the “blood levels after taking acer truncatum bunge seed oil compared with before taking” value is reported as “more than 1.2 times”; the “serum lipid content, Day 1 (NA1)” value is 245574.2; the “serum lipid content, Day 3 (NA3)” value is on record as 340912.8; the “serum lipid content, Day 7 (NA7)” value is 291861.8. In data set [2], the “difference in content between the third and the seventh day of administration” value was “no significant difference”; the “content compared with the normal group” value is “increased”; the NA7/NA1 is 1.2.
